Reference: article PMC10980815, “Cell surface patching via CXCR4-targeted nanothreads for cancer metastasis inhibition” (Nature Communications, 2024)
Ends that are not written are not given here.

What was measured:
MMP-9 and TGF-β = assay: Immunofluorescence of MMP-9 and TGF-β in tumor tissues; format: in vivo, female BALB/c mice
Description: To investigate the epithelial-mesenchymal transition process in tumor tissues, immunofluorescent staining of E-cadherin, vimentin, MMP-9, and TGF-β, along with flow cytometry analysis of E-cadherin and vimentin, were applied. For immunofluorescent staining of E-cadherin and vimentin, tumor slices were stained with CoraLite® Plus 647 anti-mouse CD324 (E-cadherin, 1:300 dilution) and anti-vimentin mouse monoclonal antibody (1:500 dilution) at 4 °C overnight, followed by staining with goat anti-mouse IgG H&L Alexa Fluor® 488 (1:1000 dilution). For flow cytometry analysis of E-cadherin and vimentin, single-cell suspensions of tumor tissues were stained with CoraLite® Plus 647 anti-mouse CD324 (E-cadherin, 1:300 dilution) or sequentially stained with anti-vimentin recombinant rabbit monoclonal antibody and goat anti-rabbit IgG H&L Alexa Fluor® 647 (1:1000 dilution), respectively. For immunofluorescent staining of MMP-9 and TGF-β, tumor slices were separately stained with MMP9 Rabbit pAb (1:500 dilution) or anti-TGF beta 1 recombinant rabbit monoclonal antibody (1:500 dilution), followed by staining with goat anti-rabbit IgG H&L Alexa Fluor® 647 (1:1000 dilution), respectively.

CCR4 = biological target: T1, CCR4 (Mus musculus, UniProt P51680); assay: Dose-dependent chemokine receptor occupation assay; format: binding, 4T1 murine cells; details: 4T1 cells, 0.1 nM to 1 mM, 1 h
T1 construct: endogenous in cells; host or cells: 4T1 murine breast cancer cells
T1 sequence (P51680 1-360): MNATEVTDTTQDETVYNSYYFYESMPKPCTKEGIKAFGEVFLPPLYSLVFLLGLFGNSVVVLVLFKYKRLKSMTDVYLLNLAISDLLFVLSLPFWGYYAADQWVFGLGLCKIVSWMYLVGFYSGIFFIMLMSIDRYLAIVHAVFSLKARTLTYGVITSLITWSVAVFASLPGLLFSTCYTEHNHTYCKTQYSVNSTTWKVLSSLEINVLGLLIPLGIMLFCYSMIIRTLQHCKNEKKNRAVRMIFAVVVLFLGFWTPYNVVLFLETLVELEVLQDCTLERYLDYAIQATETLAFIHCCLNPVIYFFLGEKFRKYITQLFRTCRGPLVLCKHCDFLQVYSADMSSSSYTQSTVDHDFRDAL
Description: (§1) To validate the specificity of the BS (CXCR4-binding sequence) to CXCR4, a dose-dependent chemokine receptors occupation assay and a chemokine receptors competitive binding assay were conducted. […] Unoccupied chemokine receptors (CXCR4, CXCR7, CXCR2, CXCR5, and CCR4) on cell surface were stained with PE anti-human CD184/CXCR4 Antibody (1:300 dilution), anti-CXCR7-PE (1:300 dilution), anti-CXCR2-PE (1:300 dilution), anti-CXCR5-PE (1:300 dilution), and PE anti-human CD194/CCR4 Antibody (1:300 dilution) at 4 °C for 1 h, prior to flow cytometry analysis. In the chemokine receptors competitive binding assay, 4T1 cells (5 × 10^5 cells) were pre-blocked with PE anti-human CD184/CXCR4 Antibody (1:300 dilution), anti-CXCR7-PE (1:300 dilution), anti-CXCR2-PE (1:300 dilution), anti-CXCR5-PE (1:300 dilution), and PE anti-human CD194/CCR4 Antibody (1:300 dilution) at 4 °C for 1 h. Subsequently, these cells were treated with P-Cy5-BS-CM1-Cy5 (5 nM Cy5 equivalence) for 1 h. Following the treatments, cells were washed three times with PBS and subjected to flow cytometry analysis.

CXCR4 = biological target: T2, CXCR4 (Mus musculus, UniProt P70658); assay: Dose-dependent chemokine receptor occupation assay; format: binding, 4T1 murine cells; details: 4T1 cells, 0.1 nM to 1 mM, 25 °C, 1 h; unoccupied receptor stained with PE antibody
T2 construct: endogenous in cells; host or cells: 4T1 murine breast cancer cells
T2 sequence (P70658 whole entry): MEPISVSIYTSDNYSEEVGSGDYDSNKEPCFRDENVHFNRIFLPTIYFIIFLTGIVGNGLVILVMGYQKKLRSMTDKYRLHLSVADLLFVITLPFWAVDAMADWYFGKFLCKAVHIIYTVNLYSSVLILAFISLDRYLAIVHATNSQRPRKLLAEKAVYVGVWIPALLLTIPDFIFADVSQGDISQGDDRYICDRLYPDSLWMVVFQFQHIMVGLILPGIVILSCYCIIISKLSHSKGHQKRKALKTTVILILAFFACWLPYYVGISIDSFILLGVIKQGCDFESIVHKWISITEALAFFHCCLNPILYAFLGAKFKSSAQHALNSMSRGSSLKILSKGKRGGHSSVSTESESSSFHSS
Description: as §1

CXCR7 = biological target: T3, CXCR7 (Mus musculus, UniProt P56485); assay: Dose-dependent chemokine receptor occupation assay; format: binding, 4T1 murine cells; details: 4T1 cells, 0.1 nM to 1 mM, 1 h
T3 construct: endogenous in cells; host or cells: 4T1 murine breast cancer cells
T3 sequence (P56485 whole entry): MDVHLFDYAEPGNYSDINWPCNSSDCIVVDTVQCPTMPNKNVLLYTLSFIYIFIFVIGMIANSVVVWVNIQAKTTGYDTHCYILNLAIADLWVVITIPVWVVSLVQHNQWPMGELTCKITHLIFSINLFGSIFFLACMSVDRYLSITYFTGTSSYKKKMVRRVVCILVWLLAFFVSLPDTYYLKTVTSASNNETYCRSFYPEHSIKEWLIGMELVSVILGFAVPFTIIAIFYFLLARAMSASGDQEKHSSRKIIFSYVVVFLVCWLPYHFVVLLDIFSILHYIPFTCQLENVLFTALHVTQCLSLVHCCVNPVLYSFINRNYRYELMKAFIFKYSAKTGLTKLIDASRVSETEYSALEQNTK
Description: as §1

CXCR5 = biological target: T4, CXCR5 (Mus musculus, UniProt Q04683); assay: Dose-dependent chemokine receptor occupation assay; format: binding, 4T1 murine cells; details: 4T1 cells, 0.1 nM to 1 mM, 1 h
T4 construct: endogenous in cells; host or cells: 4T1 murine breast cancer cells
T4 sequence (Q04683 1-374): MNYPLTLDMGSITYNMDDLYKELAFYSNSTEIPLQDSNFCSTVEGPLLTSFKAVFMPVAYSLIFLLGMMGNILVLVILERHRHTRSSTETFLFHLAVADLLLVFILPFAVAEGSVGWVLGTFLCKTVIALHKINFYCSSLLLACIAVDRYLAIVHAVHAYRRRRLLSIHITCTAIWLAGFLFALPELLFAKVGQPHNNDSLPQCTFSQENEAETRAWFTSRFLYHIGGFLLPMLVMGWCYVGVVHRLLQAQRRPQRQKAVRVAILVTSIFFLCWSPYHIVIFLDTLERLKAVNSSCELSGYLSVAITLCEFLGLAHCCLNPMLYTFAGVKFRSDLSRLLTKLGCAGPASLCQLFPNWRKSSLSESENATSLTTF
Description: as §1

CXCR2 = biological target: T5, CXCR2 (Mus musculus, UniProt P35343); assay: Dose-dependent chemokine receptor occupation assay; format: binding, 4T1 murine cells; details: 4T1 cells, 0.1 nM to 1 mM, 1 h
T5 construct: endogenous in cells; host or cells: 4T1 murine breast cancer cells
T5 sequence (P35343 1-359): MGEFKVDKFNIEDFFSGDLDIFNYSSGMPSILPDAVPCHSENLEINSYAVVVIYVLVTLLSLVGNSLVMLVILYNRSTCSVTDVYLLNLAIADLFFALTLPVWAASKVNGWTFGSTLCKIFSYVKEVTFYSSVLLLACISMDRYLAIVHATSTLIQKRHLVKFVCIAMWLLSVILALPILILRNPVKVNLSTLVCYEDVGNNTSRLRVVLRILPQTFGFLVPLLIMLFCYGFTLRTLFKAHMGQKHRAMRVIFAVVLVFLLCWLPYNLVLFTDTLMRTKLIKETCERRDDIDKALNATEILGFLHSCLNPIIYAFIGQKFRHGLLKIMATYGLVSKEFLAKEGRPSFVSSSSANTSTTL
Description: as §1

Substance: LGASWHRPDKCCLGYQKRPLPA [Free BS]
- Relative fluorescence intensity of MMP-9 in tumor tissues (MMP-9 and TGF-β; replicate 1): 143.238
- Relative fluorescence intensity of TGF-β in tumor tissues (MMP-9 and TGF-β; replicate 1): 172.974
- Relative fluorescence intensity of MMP-9 in tumor tissues (MMP-9 and TGF-β; replicate 2): 142.904
- Relative fluorescence intensity of TGF-β in tumor tissues (MMP-9 and TGF-β; replicate 2): 152.446
- Relative fluorescence intensity of MMP-9 in tumor tissues (MMP-9 and TGF-β; replicate 3): 138.899
- Relative fluorescence intensity of TGF-β in tumor tissues (MMP-9 and TGF-β; replicate 3): 165.051
- Relative fluorescence intensity of MMP-9 in tumor tissues (MMP-9 and TGF-β; replicate 4): 132.502
- Relative fluorescence intensity of TGF-β in tumor tissues (MMP-9 and TGF-β; replicate 4): 164.828
- Relative fluorescence intensity of MMP-9 in tumor tissues (MMP-9 and TGF-β; replicate 5): 136.888
- Relative fluorescence intensity of TGF-β in tumor tissues (MMP-9 and TGF-β; replicate 5): 159.609
- CCR4 occupation (CCR4): did not occupy
- CXCR4 occupation (CXCR4): comparable CXCR4 occupation to AMD3100
- CXCR7 occupation (CXCR7): did not occupy
- CXCR5 occupation (CXCR5): did not occupy
- CXCR2 occupation (CXCR2): did not occupy

Substance: P-BS: HPMA copolymer-BS conjugate, ~6 BS grafts per polymer (LGASWHRPDKCCLGYQKRPLPA; not fully specified (residues 11, 12); also: about 6 peptides grafted on HPMA copolymer via cysteine-maleimide thioether links)
- Relative fluorescence intensity of MMP-9 in tumor tissues (MMP-9 and TGF-β; replicate 1): 108.085
- Relative fluorescence intensity of TGF-β in tumor tissues (MMP-9 and TGF-β; replicate 1): 144.596
- Relative fluorescence intensity of MMP-9 in tumor tissues (MMP-9 and TGF-β; replicate 2): 120.005
- Relative fluorescence intensity of TGF-β in tumor tissues (MMP-9 and TGF-β; replicate 2): 130.014
- Relative fluorescence intensity of MMP-9 in tumor tissues (MMP-9 and TGF-β; replicate 3): 113.377
- Relative fluorescence intensity of TGF-β in tumor tissues (MMP-9 and TGF-β; replicate 3): 139.806
- Relative fluorescence intensity of MMP-9 in tumor tissues (MMP-9 and TGF-β; replicate 4): 115.997
- Relative fluorescence intensity of TGF-β in tumor tissues (MMP-9 and TGF-β; replicate 4): 146.777
- Relative fluorescence intensity of MMP-9 in tumor tissues (MMP-9 and TGF-β; replicate 5): 97.611
- Relative fluorescence intensity of TGF-β in tumor tissues (MMP-9 and TGF-β; replicate 5): 131.749
